# Reference: patent US20060069132A1, “Azolecarboxamide herbicides” (priority 2004, published 2006)
# Key:
# rice [1] = test: Test B flooded paddy test; assay type: in vivo, Oryza sativa; conditions: 1000 g ai/ha, scale 0 to 100 (0 no effect, 100 complete control)
# Method in brief: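 Plants grow to 1- to 4-leaf stage (2–18 cm) for postemergence spraying, or to 2-leaf stage for the paddy test. Formulated compound is applied. Greenhouse holding lasts 13–15 days. Response is scored visually relative to controls, 0 no effect to 100 complete control; a dash means no result.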
# wild oat = test: Test B postemergence herbicide test; assay type: in vivo, Avena fatua; conditions: postemergence
# Method in brief: (§1)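 Visual ratings, 0 (no effect) to 100 (complete control), made versus controls after 13–15 d greenhouse. Paddy plants treated at 2-leaf stage; postemergence plants at 1- to 4-leaf stage, 2–18 cm tall.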
# Surinam grass = test: Test B pre-/postemergence herbicide test; assay type: in vivo, Urochloa decumbens; conditions: for Surinam Grass plant response rating: postemergence
# Method in brief: (§2)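 Pre: seeds sown, then sprayed. Post: 1–4-leaf plants (2–18 cm) sprayed at the same time. Paddy: flooded, treated at 2-leaf stage. Formulation: non-phytotoxic solvent with surfactant. Greenhouse 13–15 days; visual 0–100 score relative to controls.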
# velvetleaf [2] = test: Test B pre-/postemergence herbicide test; assay type: in vivo, Abutilon theophrasti; conditions: for Velvetleaf plant response rating: postemergence
# Method in brief: as §2
# rice [3] = test: Test B pre-/postemergence herbicide test; assay type: in vivo, Oryza sativa; conditions: 0 = no effect, 100 = complete control, preemergence
# Method in brief: as §2
# barnyardgrass [4] = test: Test B pre-/postemergence herbicide test; assay type: in vivo, Echinochloa crus-galli; conditions: for Barnyardgrass plant response rating: postemergence
# Method in brief: (§3)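 Flooded paddy rice and barnyardgrass were treated at the 2-leaf stage; upland plantings received compound either on sown seed or on 1- to 4-leaf seedlings. All were kept 13–15 days in a greenhouse and scored visually, 0–100, relative to untreated plants.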
# cocklebur = test: Test B pre-/postemergence herbicide test; assay type: in vivo, Xanthium strumarium; conditions: for Cocklebur plant response rating: postemergence
# Method in brief: as §3
# giant foxtail [5] = test: Test A pre-/postemergence herbicide test; assay type: in vivo, Setaria faberi
# Method in brief: (§4)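 Plants are held in greenhouse about ten days after treatment, then compared with untreated controls and scored 0 (no effect) to 100 (complete control). Preemergence dosing is a directed soil spray on sown sandy loam; postemergence dosing is spray to runoff at 2–10 cm height.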
# large crabgrass [6] = test: Test B pre-/postemergence herbicide test; assay type: in vivo, Digitaria sanguinalis; conditions: for Crabgrass, Large plant response rating: postemergence
# Method in brief: as §2
# pigweed = test: Test B pre-/postemergence herbicide test; assay type: in vivo, Amaranthus retroflexus; conditions: for Pigweed plant response rating: postemergence
# Method in brief: as §2
# morningglory [7] = test: Test B pre-/postemergence herbicide test; assay type: in vivo, Ipomoea coccinea; conditions: for Morningglory plant response rating: postemergence
# Method in brief: as §3
# [8] = system: small flower umbrella sedge; test: Test B flooded paddy test; assay type: in vivo, Cyperus difformis; conditions: 1000 g ai/ha, scale 0 to 100 (0 no effect, 100 complete control)
# Method in brief: (§5)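 After treating 2-leaf paddy plants or 2–18 cm postemergence plants (1 to 4 leaves) with formulated chemical, researchers kept them in a greenhouse for 13–15 days. Effects were judged visually versus controls: 0 indicates none, 100 total control.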
# ducksalad = test: Test B flooded paddy test; assay type: in vivo, Heteranthera limosa; conditions: 1000 g ai/ha, scale 0 to 100 (0 no effect, 100 complete control)
# Method in brief: as §5
# barnyardgrass [9] = test: Test A pre-/postemergence herbicide test; assay type: in vivo, Echinochloa crus-galli
# Method in brief: as §4
# giant foxtail [10] = test: Test B pre-/postemergence herbicide test; assay type: in vivo, Setaria faberi; conditions: for Foxtail, Giant plant response rating: postemergence
# Method in brief: as §2
# corn = test: Test B pre-/postemergence herbicide test; assay type: in vivo, Zea mays; conditions: for Corn plant response rating: postemergence
# Method in brief: as §2
# blackgrass = test: Test B postemergence herbicide test; assay type: in vivo, Alopecurus myosuroides; conditions: postemergence
# Method in brief: as §5
# redroot pigweed = test: Test A pre-/postemergence herbicide test; assay type: in vivo, Amaranthus retroflexus
# Method in brief: as §4
# morningglory [11] = test: Test A pre-/postemergence herbicide test; assay type: in vivo, Ipomoea spp.
# Method in brief: as §4
# barnyardgrass [12] = test: Test B flooded paddy test; assay type: in vivo, Echinochloa crus-galli; conditions: 1000 g ai/ha, scale 0 to 100 (0 no effect, 100 complete control)
# Method in brief: as §5
# velvetleaf [13] = test: Test A pre-/postemergence herbicide test; assay type: in vivo, Abutilon theophrasti
# Method in brief: as §4
# wheat = test: Test B postemergence herbicide test; assay type: in vivo, Triticum aestivum; parameters: key to Wheat plant response rating: 0 = no effect, 100 = complete control; conditions: postemergence
# Method in brief: as §1
# large crabgrass [14] = test: Test A pre-/postemergence herbicide test; assay type: in vivo, Digitaria sanguinalis
# Method in brief: as §4
# lambsquarters = test: Test B pre-/postemergence herbicide test; assay type: in vivo, Chenopodium album; conditions: for Lambsquarters plant response rating: postemergence
# Method in brief: as §2
# [15] = 125 g ai/ha, visual rating, scale 0 (no effect) to 100 (complete control)
# [16] = 500 g ai/ha, scale 0 to 100, 0 is no effect, 100 is complete control
# [17] = 125 g ai/ha, 0 = no effect, 100 = complete control, preemergence
# [18] = 500 g ai/ha, visual rating, 0 = no effect, 100 = complete control, preemergence
# [19] = Postemergence, 500 g ai/ha, 0 to 100 scale, 0 no effect, 100 complete control
# [20] = Postemergence, 2000 g ai/ha, 0 to 100 scale, 0 no effect, 100 complete control
# [21] = Preemergence, 2000 g ai/ha, visual rating, 0 to 100 scale (0 no effect, 100 complete control)
# [22] = preemergence, 500 g ai/ha, visual injury, 0 to 100 scale (0 no effect, 100 complete control)
smiles,measurement,setting,value
CCn1nc(C(C)(C)C)cc1C(=O)Nc1ccnc(C(=O)NCCF)c1 [Compound 284],Rice plant response rating,rice [1],10
same,"Oat, Wild plant response rating",wild oat; [15],10
same,"Oat, Wild plant response rating",wild oat; [16],30
same,Surinam Grass plant response rating (0 to 100 scale),Surinam grass; [17],0
same,"Plant response rating, Surinam Grass",Surinam grass; [18],10
same,Surinam Grass plant response rating,Surinam grass; [15],0
same,Surinam Grass plant response rating,Surinam grass; [16],20
same,Velvetleaf plant response rating (0 to 100 scale),velvetleaf [2]; [17],0
same,"Plant response rating, Velvetleaf",velvetleaf [2]; [18],60
same,Velvetleaf plant response rating,velvetleaf [2]; [15],0
same,Velvetleaf plant response rating,velvetleaf [2]; [16],0
same,Rice plant response rating (0 to 100 scale),rice [3]; 125 g ai/ha,0
same,"Plant response rating, Rice","rice [3]; 500 g ai/ha, visual rating",20
same,Barnyardgrass plant response rating (0 to 100 scale),barnyardgrass [4]; [17],0
same,"Plant response rating, Barnyardgrass",barnyardgrass [4]; [18],80
same,Barnyardgrass plant response rating,barnyardgrass [4]; [15],0
same,Barnyardgrass plant response rating,barnyardgrass [4]; [16],0
same,Cocklebur plant response rating (0 to 100 scale),cocklebur; [17],0
same,"Plant response rating, Cocklebur",cocklebur; [18],0
same,Cocklebur plant response rating,cocklebur; [15],0
same,Cocklebur plant response rating,cocklebur; [16],0
same,"Foxtail, Giant plant response rating",giant foxtail [5]; [19],20
same,"Plant response rating, Foxtail, Giant",giant foxtail [5]; [20],35
same,"Foxtail, Giant plant response rating",giant foxtail [5]; [21],55
same,"Foxtail, Giant plant response rating",giant foxtail [5]; [22],20
same,"Crabgrass, Large plant response rating (0 to 100 scale)",large crabgrass [6]; [17],0
same,"Plant response rating, Crabgrass, Large",large crabgrass [6]; [18],90
same,"Crabgrass, Large plant response rating",large crabgrass [6]; [15],0
same,"Crabgrass, Large plant response rating",large crabgrass [6]; [16],10
same,Pigweed plant response rating (0 to 100 scale),pigweed; [17],90
same,"Plant response rating, Pigweed",pigweed; [18],100
same,Pigweed plant response rating,pigweed; [15],60
same,Pigweed plant response rating,pigweed; [16],70
same,Morningglory plant response rating (0 to 100 scale),morningglory [7]; [17],0
same,"Plant response rating, Morningglory",morningglory [7]; [18],0
same,Morningglory plant response rating,morningglory [7]; [15],0
same,Morningglory plant response rating,morningglory [7]; [16],0
same,"Sedge, Umbrella plant response rating",[8],0
same,Ducksalad plant response rating,ducksalad,70
same,Barnyardgrass plant response rating,barnyardgrass [9]; [19],30
same,"Plant response rating, Barnyardgrass",barnyardgrass [9]; [20],60
same,Barnyardgrass plant response rating,barnyardgrass [9]; [21],85
same,Barnyardgrass plant response rating,barnyardgrass [9]; [22],10
same,"Foxtail, Giant plant response rating (0 to 100 scale)",giant foxtail [10]; [17],0
same,"Plant response rating, Foxtail, Giant",giant foxtail [10]; [18],10
same,"Foxtail, Giant plant response rating",giant foxtail [10]; [15],0
same,"Foxtail, Giant plant response rating",giant foxtail [10]; [16],0
same,Corn plant response rating (0 to 100 scale),corn; [17],0
same,"Plant response rating, Corn",corn; [18],0
same,Corn plant response rating,corn; [15],0
same,Corn plant response rating,corn; [16],10
same,Blackgrass plant response rating,blackgrass; [15],20
same,Blackgrass plant response rating,blackgrass; [16],40
same,Pigweed plant response rating,redroot pigweed; [19],95
same,"Plant response rating, Pigweed",redroot pigweed; [20],100
same,Pigweed plant response rating,redroot pigweed; [21],100
same,Pigweed plant response rating,redroot pigweed; [22],85
same,Morningglory plant response rating,morningglory [11]; [19],10
same,"Plant response rating, Morningglory",morningglory [11]; [20],15
same,Morningglory plant response rating,morningglory [11]; [21],5
same,Morningglory plant response rating,morningglory [11]; [22],0
same,Barnyardgrass plant response rating,barnyardgrass [12],30
same,Velvetleaf plant response rating,velvetleaf [13]; [19],30
same,"Plant response rating, Velvetleaf",velvetleaf [13]; [20],35
same,Velvetleaf plant response rating,velvetleaf [13]; [21],40
same,Velvetleaf plant response rating,velvetleaf [13]; [22],10
same,Wheat plant response rating,wheat; [15],20
same,Wheat plant response rating,wheat; [16],30
same,"Crabgrass, Large plant response rating",large crabgrass [14]; [19],20
same,"Plant response rating, Crabgrass, Large",large crabgrass [14]; [20],20
same,"Crabgrass, Large plant response rating",large crabgrass [14]; [21],80
same,"Crabgrass, Large plant response rating",large crabgrass [14]; [22],15
same,Lambsquarters plant response rating (0 to 100 scale),lambsquarters; [17],90
same,"Plant response rating, Lambsquarters",lambsquarters; [18],100
same,Lambsquarters plant response rating,lambsquarters; [15],50
same,Lambsquarters plant response rating,lambsquarters; [16],50
